Patent US20030125311A1, “Compounds capable of binding with the cytoskeleton” (priority 2002, published 2003)

Assays:
[1] = molecular target: fetal rat brain cytosol binding sites of pregnenolone (Rattus norvegicus, UniProt P15146); experiment: Equilibrium binding of PREG [3H] to fetal brain cytosol; conditions: mean±standard error, n=3
Protocol: Fetal brains are collected, and are rinsed, after the meninges have been removed, with a homogenization buffer at 4° C. [10 mM of Tris-HCl, at pH 8.5, containing 1.5 mM of EDTA, 1 mM of dithiothreitol, 10% of glycerol, Complete®, (a mixture of protease inhibitors, Roche Molecular Biochemical); termed TEDG buffer].
(§1) The supernatant is then centrifuged at 100,000 g for 1 h at 4° C. The samples are used immediately for the trials, or are stored in liquid nitrogen until the moment of their use.
(§2) Just before the binding trial, each sample is purified with a dextran-carbon suspension, and 2 ml samples of supernatant (purified cytosol) are added to a series of tubes containing 1 to 500 nM PREG [^3H], with or without unlabeled steroid in 1,000-fold excess.
(§3) The tubes are incubated at 45° C. for 30 min. The separation of bound and free steroid was carried out on a Sephadex LH-20® (Amersham Pharmacia Biotech) mini-column.
(§4) The counting of the radioactivity in the flasks was performed in a liquid scintillation spectrometer with attenuation correction (Tri-Carb 2100 TR®, Packard).
The equilibrium binding data are analyzed with the Mac Ligand program, adapted from Munson and Rodbard (17). […]
The bound steroid is separated by gel filtration on Sephadex LH20® at 0-4° C. The binding constants are determined with the Mac Ligand program.

[2] = molecular target: adult rat brain cytosol compound which binds PREG (Rattus norvegicus, UniProt P15146); experiment: Equilibrium binding of PREG to adult rat brain cytosol
Protocol: Adult male rat brains are collected after perfusion with PBS containing 2 IU/ml of heparin. The brains are weighed and homogenized with 4 vol. of homogenization buffer in Potter glass/Teflon® homogenizers, and centrifuged at 800 g for 10 min.
as §1, §2, §3, §4

[3] = molecular target: fetal microtubules (Rattus norvegicus, UniProt P15146); experiment: Binding of PREG [3H] to purified fetal rat brain microtubules
Protocol: (§5) The microtubules are prepared starting from calf brain or adult or fetal rat brain according to an assembly/disassembly method, as a function of the temperature, in vitro (12).
(§6) The binding of PREG [^3H] to microtubules prepared by polymerization/depolymerization cycles was determined.

[4] = molecular target: adult microtubules (Rattus norvegicus, UniProt P15146); experiment: Binding of PREG [3H] to purified adult rat brain microtubules
Protocol: as §5, §6

[5] = test system: tau protein; experiment: Saturable binding of PREG [3H] to purified tau protein; design: species or system calf; conditions: tau protein 25 μg/ml, 100 nM PREG [3H] ± 1,000-fold excess PREG
Protocol: The tau and MAP2 proteins are purified according to the protocol of Fellous et al. (12) by heat denaturation of the microtubules and gel filtration on a column, Sephacryl 300® being used instead of the Ultrogel ACA 34. The tau proteins are then Further purified according to the method of Lindwall and Cole (15).
Purified calf brain tubulin (90 μg/ml), MAP2 (45 μg/ml) or tau protein (25 μg/ml) is incubated with 100 nM of PREG [^3H], with or without a 1,000-fold excess of non-radioactive PREG.

[6] = molecular target: T1, microtubules reconstituted with purified tubulin and MAP2 (Bos taurus, UniProt A0A3Q1NAK9); experiment: Kinetics of assembling of microtubules (turbidity at 345 nm); format: biochemical, calf; conditions: 500 nM steroid, 37° C., 15 min
T1 construct: from tissue; host or cells: calf brain
Protocol: This assembling is measured by monitoring the increases of turbidity with a UVICON® spectrophotometer (Kontron Instruments, Montigny-le-Bretonneux, France)
The microtubules are reconstituted in vitro with purified tubulin (1 mg/ml) and MAP2 (0.05 mg/ml) in buffer A.
The increase of absorbance is measured at 345 nm, at 37° C. and recorded every 30 sec. for 15 min.
The assembling of microtubules is measured either in the absence of steroids (-⋄-); or in the presence of 500 nM of steroid: PREG (- -), progesterone (-X-), estradiol (-V-); or in the presence, at the same time, of PREG and progesterone (-∘-) or of PREG and estradiol (-Δ-) each at a concentration of 500 nM.

[7] = test system: fetal rat brain neurons; experiment: Immunocytochemistry of fetal rat brain neuron cultures; format: cell-based; conditions: 1 μM for 2 days
Protocol: Primary cultures of E17 fetal neurons are performed according to El-Etr et al. (16). Briefly, this method consists of spreading the dissociated cells (200,000 cells/cm^2) on glass plates covered with poly-1-ornithine and cultured in a completely defined medium in 5% CO2 at 37° C. The culture conditions used permit a practically pure neuron population to be obtained.
24 h after seeding, 1 micromolar pregnenolone (final ethanol concentration 0.01%), or the solvent alone, is added and cultures are continued for 2 days. The cells are fixed in 4% paraformaldehyde, then frozen at −80° C. The cells are duly rehydrated by passages of 5 min in ethanol at concentrations of 100, 90 and 70%. After 2 washings in PBS, for 5 min, the cells are incubated in PBS containing 3% of BSA and 0.1% of Triton X100®, at ambient temperature for 1 h.
After 4 washings in PBS, the cells are incubated at 37° C. for 1 h, then at 4° C. for about 14 h, in the presence of either anti-α-tubulin monoclonal antibody diluted {fraction (1/2,000)}, or anti-MAP2 monoclonal antibody diluted {fraction (1/1,000)}, or anti-double-cortin antiserum diluted 1/300.
After 3 washings in PBS, the secondary antibody is added at ambient temperature, for 45 minutes. […]

Sequence of fetal microtubules (P15146 whole entry): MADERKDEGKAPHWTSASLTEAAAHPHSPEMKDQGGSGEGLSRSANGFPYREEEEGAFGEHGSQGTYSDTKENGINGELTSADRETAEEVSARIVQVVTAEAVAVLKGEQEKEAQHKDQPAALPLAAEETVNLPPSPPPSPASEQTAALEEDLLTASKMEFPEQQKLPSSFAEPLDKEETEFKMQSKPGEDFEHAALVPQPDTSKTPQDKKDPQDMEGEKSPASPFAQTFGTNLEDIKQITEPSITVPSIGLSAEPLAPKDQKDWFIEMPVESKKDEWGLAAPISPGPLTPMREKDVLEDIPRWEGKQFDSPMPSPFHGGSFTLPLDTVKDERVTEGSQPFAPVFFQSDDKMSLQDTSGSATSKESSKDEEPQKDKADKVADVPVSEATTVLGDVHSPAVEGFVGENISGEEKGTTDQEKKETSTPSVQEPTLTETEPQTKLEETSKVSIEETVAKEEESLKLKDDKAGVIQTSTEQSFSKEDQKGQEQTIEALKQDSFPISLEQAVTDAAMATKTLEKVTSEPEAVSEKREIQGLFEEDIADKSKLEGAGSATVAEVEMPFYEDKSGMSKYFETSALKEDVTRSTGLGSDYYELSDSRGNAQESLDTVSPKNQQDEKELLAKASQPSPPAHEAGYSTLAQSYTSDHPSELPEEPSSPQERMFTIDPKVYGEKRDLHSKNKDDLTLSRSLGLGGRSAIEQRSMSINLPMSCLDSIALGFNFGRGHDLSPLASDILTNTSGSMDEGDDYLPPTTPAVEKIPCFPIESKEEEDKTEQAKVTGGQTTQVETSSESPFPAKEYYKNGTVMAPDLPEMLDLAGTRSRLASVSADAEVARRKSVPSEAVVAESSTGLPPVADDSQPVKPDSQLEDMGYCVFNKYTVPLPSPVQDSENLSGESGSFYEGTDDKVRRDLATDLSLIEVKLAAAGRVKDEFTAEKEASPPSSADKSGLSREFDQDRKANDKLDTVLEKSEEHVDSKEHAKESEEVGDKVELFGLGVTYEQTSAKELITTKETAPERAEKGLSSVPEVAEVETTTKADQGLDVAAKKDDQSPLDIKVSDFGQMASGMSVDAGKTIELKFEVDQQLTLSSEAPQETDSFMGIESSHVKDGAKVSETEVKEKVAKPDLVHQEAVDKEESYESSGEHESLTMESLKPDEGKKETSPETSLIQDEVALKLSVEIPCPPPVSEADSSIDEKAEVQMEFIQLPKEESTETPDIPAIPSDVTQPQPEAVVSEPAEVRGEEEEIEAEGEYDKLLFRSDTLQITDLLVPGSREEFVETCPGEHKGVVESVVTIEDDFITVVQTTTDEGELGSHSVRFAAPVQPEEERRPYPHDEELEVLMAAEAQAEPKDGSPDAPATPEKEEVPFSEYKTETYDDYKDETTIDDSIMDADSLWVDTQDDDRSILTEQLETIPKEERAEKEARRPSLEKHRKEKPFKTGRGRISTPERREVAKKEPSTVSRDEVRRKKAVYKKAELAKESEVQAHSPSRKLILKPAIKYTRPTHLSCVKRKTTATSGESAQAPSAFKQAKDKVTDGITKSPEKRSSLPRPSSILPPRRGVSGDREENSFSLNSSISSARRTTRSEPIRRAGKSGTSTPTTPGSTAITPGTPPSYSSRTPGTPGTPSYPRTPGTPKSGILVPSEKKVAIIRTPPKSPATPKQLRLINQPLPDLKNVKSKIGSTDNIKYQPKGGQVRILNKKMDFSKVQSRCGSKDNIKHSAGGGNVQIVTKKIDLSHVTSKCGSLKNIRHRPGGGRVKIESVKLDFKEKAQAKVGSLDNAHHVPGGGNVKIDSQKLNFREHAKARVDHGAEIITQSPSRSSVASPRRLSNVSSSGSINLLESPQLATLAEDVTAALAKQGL
Sequence of adult microtubules (Q3KRE8 whole entry): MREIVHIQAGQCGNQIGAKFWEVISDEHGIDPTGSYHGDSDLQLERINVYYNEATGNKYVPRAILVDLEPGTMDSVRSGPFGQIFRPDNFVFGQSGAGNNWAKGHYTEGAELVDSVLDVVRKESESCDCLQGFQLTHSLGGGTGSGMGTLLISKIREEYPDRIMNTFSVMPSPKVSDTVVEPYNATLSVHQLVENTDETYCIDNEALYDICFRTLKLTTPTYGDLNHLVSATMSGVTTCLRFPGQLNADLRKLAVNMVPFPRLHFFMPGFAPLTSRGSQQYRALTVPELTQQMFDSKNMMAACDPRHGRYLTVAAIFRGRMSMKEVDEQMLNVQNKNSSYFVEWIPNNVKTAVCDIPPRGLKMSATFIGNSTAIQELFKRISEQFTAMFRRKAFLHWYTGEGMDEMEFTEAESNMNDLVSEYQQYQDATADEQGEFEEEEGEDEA
Sequence of adult microtubules (P68370 whole entry, further chain): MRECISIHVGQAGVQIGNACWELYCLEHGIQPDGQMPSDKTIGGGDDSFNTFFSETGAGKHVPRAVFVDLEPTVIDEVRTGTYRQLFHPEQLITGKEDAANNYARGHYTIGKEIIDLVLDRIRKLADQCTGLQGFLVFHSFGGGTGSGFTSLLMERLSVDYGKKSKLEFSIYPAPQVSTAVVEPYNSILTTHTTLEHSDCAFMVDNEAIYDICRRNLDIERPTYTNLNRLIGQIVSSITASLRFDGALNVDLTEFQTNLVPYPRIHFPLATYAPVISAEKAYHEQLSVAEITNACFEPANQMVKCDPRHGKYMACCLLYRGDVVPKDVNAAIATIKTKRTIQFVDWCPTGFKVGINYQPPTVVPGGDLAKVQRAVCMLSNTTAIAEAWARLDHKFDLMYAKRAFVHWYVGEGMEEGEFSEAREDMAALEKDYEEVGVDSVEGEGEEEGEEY
Sequence of adult microtubules (P15146 whole entry): as the sequence (P15146 whole entry) above
Sequence of fetal rat brain cytosol binding sites of pregnenolone (P15146 whole entry): as above
Sequence of adult rat brain cytosol compound which binds PREG (P15146 whole entry, the tested form may be a part): as the sequence (P15146 whole entry) above
T1 sequence (A0A3Q1NAK9 1-1867): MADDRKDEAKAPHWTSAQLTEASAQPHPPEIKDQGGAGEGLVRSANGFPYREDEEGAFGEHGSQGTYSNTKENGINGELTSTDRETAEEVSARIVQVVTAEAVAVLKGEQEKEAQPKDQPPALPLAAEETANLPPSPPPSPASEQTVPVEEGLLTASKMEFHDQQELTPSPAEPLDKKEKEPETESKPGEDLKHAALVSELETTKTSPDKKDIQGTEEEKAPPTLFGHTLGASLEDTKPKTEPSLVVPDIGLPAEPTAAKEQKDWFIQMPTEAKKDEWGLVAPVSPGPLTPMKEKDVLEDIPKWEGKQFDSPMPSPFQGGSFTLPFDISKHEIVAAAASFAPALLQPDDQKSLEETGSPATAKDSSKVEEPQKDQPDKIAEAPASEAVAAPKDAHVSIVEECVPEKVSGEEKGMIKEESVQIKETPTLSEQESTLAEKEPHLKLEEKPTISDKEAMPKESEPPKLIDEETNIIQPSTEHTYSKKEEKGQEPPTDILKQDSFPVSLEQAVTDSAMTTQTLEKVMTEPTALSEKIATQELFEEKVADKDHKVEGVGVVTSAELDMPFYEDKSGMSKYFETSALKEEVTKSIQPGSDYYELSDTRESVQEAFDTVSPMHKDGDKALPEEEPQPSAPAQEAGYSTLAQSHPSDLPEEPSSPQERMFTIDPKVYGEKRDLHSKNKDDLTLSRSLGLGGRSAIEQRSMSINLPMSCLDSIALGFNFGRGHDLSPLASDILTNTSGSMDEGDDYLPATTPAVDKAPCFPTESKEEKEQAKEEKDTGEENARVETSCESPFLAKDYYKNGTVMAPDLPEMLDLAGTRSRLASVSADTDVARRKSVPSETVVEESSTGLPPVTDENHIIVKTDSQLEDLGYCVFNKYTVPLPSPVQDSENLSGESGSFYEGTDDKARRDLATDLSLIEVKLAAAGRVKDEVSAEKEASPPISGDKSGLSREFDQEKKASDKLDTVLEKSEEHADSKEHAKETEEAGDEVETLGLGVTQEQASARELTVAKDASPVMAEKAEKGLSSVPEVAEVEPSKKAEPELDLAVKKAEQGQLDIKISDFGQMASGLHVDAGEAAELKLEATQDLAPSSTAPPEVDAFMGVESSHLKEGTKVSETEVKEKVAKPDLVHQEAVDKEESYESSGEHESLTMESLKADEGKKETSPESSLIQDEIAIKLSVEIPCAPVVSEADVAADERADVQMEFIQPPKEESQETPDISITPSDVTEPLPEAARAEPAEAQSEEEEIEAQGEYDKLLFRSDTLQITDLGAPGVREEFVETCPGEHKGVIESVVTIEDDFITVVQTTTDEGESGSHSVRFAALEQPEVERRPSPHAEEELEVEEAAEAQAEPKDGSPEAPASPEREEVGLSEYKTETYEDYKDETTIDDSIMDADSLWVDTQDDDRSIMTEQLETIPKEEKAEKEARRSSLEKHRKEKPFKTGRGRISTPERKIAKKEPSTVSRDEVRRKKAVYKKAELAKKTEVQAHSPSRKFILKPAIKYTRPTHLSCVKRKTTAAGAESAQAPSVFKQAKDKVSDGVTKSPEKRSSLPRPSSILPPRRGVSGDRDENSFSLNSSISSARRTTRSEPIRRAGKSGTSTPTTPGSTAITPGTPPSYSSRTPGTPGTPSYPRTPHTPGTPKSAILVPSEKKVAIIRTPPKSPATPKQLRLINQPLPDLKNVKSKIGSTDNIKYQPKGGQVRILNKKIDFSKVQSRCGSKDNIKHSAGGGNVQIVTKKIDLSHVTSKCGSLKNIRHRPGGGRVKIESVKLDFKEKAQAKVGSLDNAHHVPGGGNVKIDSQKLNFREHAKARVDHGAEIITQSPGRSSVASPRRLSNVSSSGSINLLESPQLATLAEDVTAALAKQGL

CC(=O)C1CCC2C3CC=C4CC(O)CCC4(C)C3CCC12C (stereo not drawn) [Pregnenolone]
maximum concentration of binding sites [1]: 1.2±0.1 pmol/mg of protein
Bmax [2]: 0.75 pmol/mg of protein
Bmax [3]: 3.7 pmol/mg of protein
Kd [3]: 42.9 nM
Bmax [4]: 3.4 pmol/mg of protein
saturable binding to tau protein [5]: neither tubulin, nor tau protein, nor rabbit IgG binds PREG [^3H] in a saturable manner
effect on assembling of microtubules (absorbance at 345 nm) [6]: induces a strong increase of both the speed and the extent of the assembling of the tubulin
immunolabeling of MAP2 [7]: increases the immunolabeling of MAP2 of the cell bodies and induces its extension to close nerve cells
staining with anti-α tubulin or anti-double-cortin antibodies [7]: does not show any difference
